Three substances from US7144858B2, “Antibacterial compounds and methods for treating Gram positive bacterial infections” (The Trustees of the University of Pennsylvania, priority 2002, dated 2006) can be followed below.

The nature of assay [1]: Isothermal titration calorimetry with Park's nucleotide. The class given is binding, Bacillus subtilis. Conditions: 25° C., water, Park's nucleotide 5.4 mM injected into 1 mM compound. How it is done: (§1) The resultant antibacterial compound was then titrated against a solution of the cytoplasmic PG biosynthetic precursor of lipid II, Park's nucleotide. Isothermal titration calorimetry experiments were used to measure the interaction between the antibacterial compound and Park's nucleotide. The experiments were performed at 25° C. using a titration microcalorimeter equipped with a 250 μL injection syringe and a 400 rpm stirring rate. Both the, antibacterial compound and Park's nucleotide were dissolved in water and vacuum degassed before use. Park's nucleotide (20×10 μL injection of a 5.4 mM solution) was injected into an ITC cell containing ca. 1.3 mL of the antibacterial compound (1 mM). Control experiments were performed under identical conditions by injection of the compound into water alone, Park's nucleotide into water, and the reverse experiment of titrating water into solution of the antibacterial compound or Park's nucleotide. […] The complex pattern of heat released during the titration is indicative of ligand-induced aggregation. Insoluble fibrils were produced from soluble fibril preparations by increasing the ionic strength to greater than or equal to 100 mM.
In general terms: Isothermal titration calorimetry measures the heat released or taken up as one component is titrated into another.

Assay [2] can be described thus: Binding to Park's nucleotide, Kd by 1H NMR titration. Further details: species or system Bacillus subtilis. Conditions: for Kd: 20% DMSO, NMR titration. On the procedure:
Fibril formation is observed in vitro and serves as a convenient predictor of PG complexation in vitro. […] Therefore, DMSO allows for the determination of binding affinity (Kd) values and characterization of the binding interface by Nuclear Magnetic Resonance spectroscopy (NMR).
(§2) Mass spectra were recorded on commercially available spectrometers and HPLC was performed on a commercially available columns. Both the NMR spectroscopy and transmission electron micrographs were performed in a manner known to one of ordinary skill in the art. Fmoc-amino acids and deuterated solvents were purchased from a commercial supplier. Measurement of dissociation constants was performed by NMR.
(§3) UDP-MurNAc-L-Ala-γ-D-Glu-L-Dap-D-Ala-D-Ala pentapeptide (Park's nucleotide) and UDP-MurNAc-L-Ala-γ-D-Glu-L-Dap tripeptide were isolated from Bacillus subtilis by methods known to those of ordinary skill in the art.
as §1

The nature of assay [3]: Binding to UDP-MurNAc tripeptide lipid II precursor, NMR titration. Further details: species or system Bacillus subtilis. The conditions noted are these: for Complexation/binding with UDP-MurNAc-L-Ala-γ-D-Glu-L-Dap tripeptide: NMR analysis / titration. How it is done: as §2, §3, §1
The resultant antibacterial compound still maintains the side-chain amine cationic charge. […] These values indicate that there was a strong affinity of the antibacterial compound to the two lipid II precursors.

A further assay concerns Gram positive bacteria. As to the kind of experiment: Antibiotic activity. The assay is classed as cell-based.

“cyclic (lactone) antibacterial compound containing octapeptide -Hpg-Orn-Thr-Hpg-Hpg-Thr-Phe-Orn-, diguanidylated at the ornithine residues [Example 1]”: the “Ligand-induced aggregation during ITC titration” value in assay [1] was “ligand-induced aggregation occurred”. Further, the Kd (usually the equilibrium constant for the complex coming apart) in assay [2] stood at 170 µM. Further, the “Complexation with Park's nucleotide by NMR” value in assay [2] (NMR analysis) is “clear evidence of complexation and formation of a large, soluble aggregate”. Also, the “Complexation/binding with UDP-MurNAc-L-Ala-γ-D-Glu-L-Dap tripeptide” value in assay [3] was “clear evidence of complexation and formation of a large, soluble aggregate”.

As to “cyclic (lactone) compound containing octapeptide -Hpg-Orn-Thr-Hpg-Hpg-Thr-Phe-Orn-, diacetylated at the ornithine residues; lacks the side-chain cationic charge [Comparative Example A, reference compound]”, the “Antibiotic activity” value with Gram positive bacteria was “markedly reduced”. Moreover, the Kd in assay [2] turned out to be 1340 ± 320 µM. In addition, the “Decrease in binding affinity with Park's nucleotide” value in assay [2] (titration experiments) is reported as approximately 10 fold. Also, the “Complexation/binding with UDP-MurNAc-L-Ala-γ-D-Glu-L-Dap tripeptide” value in assay [3] is “failed to show detectable binding”.

Regarding “cyclic (lactone) compound containing octapeptide -Hpg-Orn-Thr-Hpg-Hpg-Thr-Phe-Orn-, ornithine residues modified into secondary amines with isovaleraldehyde [Example 2]”, the Kd in assay [2] worked out at 130 ± 20 µM; in assay [3] (titration as in example 1, read-out: Kd value with UDP-MurNAc-L-Ala-γ-D-Glu-L-Dap tripeptide), 1280 ± 140 µM.
